This passage reports IC50 results from patent US12319655B2, “RAF kinase inhibitors and methods of use thereof” (Deciphera Pharmaceuticals, LLC, priority 2021, dated 2025).

Broadly, the IC50 is the midpoint of a concentration-inhibition curve.

The target of experiment [1] is A-Raf kinase (SEQ. ID No: 1) (Homo sapiens (Human), UniProt P10398, Y301D/Y302D). Nature of the experiment: Biochemical Assay for A-Raf (1). To be noted: Table J, assay version (1); read-out: ARAF (1) IC50. The essentials:
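A-Raf Y301D/Y302D at 5.55 nM phosphorylates 30.1 nM MEK with 1 mM ATP in pH 7.5 Tris buffer, 1% DMSO. Activity was read continuously as NADH oxidation at 340 nm in a pyruvate kinase/lactate dehydrogenase coupled system for 6 h at 30 °C. Rates from 4–5 h were converted to percent inhibition, and IC50 came from a four-parameter fit.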

For experiment [2], the target named is B-Raf kinase (SEQ. ID NO: 2) (Homo sapiens (Human), UniProt P15056). Nature of the experiment: Biochemical Assay for B-Raf (1). To be noted: Table J, assay version (1); read-out: BRAF (1) IC50. The essentials:
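Continuous PK/LDH-coupled NADH oxidation assay, A340 read for 6 h at 30° C., with 0.13 nM B-Raf, 30.1 nM MEK substrate and 1 mM ATP in Tris pH 7.5, MgCl2, DTT, detergents, 1% DMSO. Rate taken from 4–5 h window; percent inhibition vs no-compound and known-inhibitor controls; four-parameter fit gives IC50.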

Experiment [3] addresses C-Raf kinase (SEQ. ID NO: 3) (Homo sapiens (Human), UniProt P04049, Y340D/Y341D). Nature of the experiment: Biochemical Assay for C-Raf (1). To be noted: Table J, assay version (1); read-out: CRAF (1) IC50. The gist of the method: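 Coupled pyruvate kinase/LDH assay tracking NADH oxidation at 340 nm, with 0.43 nM C-Raf, 30.1 nM MEK and 1 mM ATP in pH 7.5 Tris buffer (15 mM MgCl2, 1% DMSO final). Read continuously for 6 h at 30 °C, rate taken from the 4–5 h window. IC50 from four-parameter fit of percent inhibition.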

The target of experiment [4] is B-Raf (V600E) (SEQ. ID NO: 4) kinase (Homo sapiens (Human), UniProt P15056, V600E). Nature of the experiment: Biochemical Assay for B-Raf (V600E) (1). To be noted: Table J, BRAF V600E, assay version (1); read-out: BRAF VE (1) IC50. The gist of the method: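 Coupled pyruvate kinase/lactate dehydrogenase assay: 0.03 nM B-Raf V600E, 30.1 nM MEK, 1 mM ATP, pH 7.5 Tris/MgCl2 buffer, 1% DMSO. NADH oxidation followed at 340 nm for 6 h at 30 °C; rate from 3–4 h converted to percent inhibition, IC50 by four-parameter fit.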

Experiment [5] deals with Miapaca-2 cells. Nature of the experiment: MiaPaca-2 Combination Cell proliferation Assay (1) with cobimetinib. Format: cell-based. To be noted: MiaPaca-2 cell proliferation, read-out: MiaPaca-2 Combo (1) IC50. How it is done:
MiaPaca-2 Combination Cell proliferation Assay (1)
Miapaca-2 cells (catalog #CRL-1420) are obtained from the American Type Culture Collect (ATCC, Manassas, VA). Briefly, cells were grown in DMEM supplemented with 10% characterized fetal bovine serum (Invitrogen, Carlsbad, CA), 2.5% New Zealand sourced horse serum and 1% Penicillin/Streptomycin/L-Glutamine at 37° C., 5% CO2, and 95% humidity. Cells are expanded until reaching 70-95% confluency at which point they are subcultured or harvested for assay use. A serial dilution of test compound was dispensed into multiple 96-well black clear bottom plates in triplicate. A serial dilution of complete growth medium containing cobimetinib was prepared at twice the final concentration and 100 μL was dispensed across the test compound titration in triplicate. Three thousand cells are added per well in 100 μL complete growth medium in each 96-well plate. Plates are incubated for 67-72 hours at 37° C., 5% CO2, and 95% humidity. At the end of the incubation, 40 μL of a 440 μM solution of resazurin (Sigma, St. Louis, MO) in PBS is added to each well of the plate and plates are incubated for an additional 5-7 hours at 37° C., 5% CO2, and 95% humidity. Plates are read on a Synergy2 or equivalent reader (Biotek, Winooski VT) using an excitation of 540 nm and an emission of 600 nm. Drug synergy was assessed via BLISS analysis in the Combenefit software (Cancer Research UK Cambridge Institute, Cambridge, UK). Data is analyzed using Prism software (Graphpad, San Diego, CA) to calculate IC50 values. Shifts in test compound IC50 values are reported from top-constrained combination therapy curves.

In experiment [6] the test system is A375 cells. Nature of the experiment: A375 Cell Proliferation Assay (1). Format: cell-based. To be noted: Homo sapiens, A-375. As for the experimental part:
A375 Cell Proliferation Assay (1)
(§1) A375 cells (catalog (#CRL-1619) are obtained from the American Type Culture Collect (ATTC, Manassas, VA). Briefly, cells were grown in DMEM High Glucose supplemented with 10% characterized fetal bovine serum (Invitrogen, Carlsbad, CA) and 1% Penicillin/Streptomycin/L-Glutamine at 37° C., 5% CO2, and 95% humidity. Cells are expanded until reaching 70-95% confluency at which point they are sub-cultured or harvested for assay use. A serial dilution of test compound is dispensed into a 96-well black clear bottom plate in triplicate. Two thousand five hundred cells are added per well in 200 μL complete growth medium in the 96-well plate. Plates are incubated for 67-72 h at 37° C., 5% CO2, and 95% humidity. At the end of the incubation, 40 μL of a 440 μM solution of resazurin (Sigma, St. Louis, MO) in PBS is added to each well of the plate and plates are incubated for an additional 5-6 h at 37° C., 5% CO2, and 95% humidity. Plates are read on a Synergy2 or equivalent reader (Biotek, Winooski VT) using an excitation of 540 nm and an emission of 600 nm. Data is analyzed using Prism software (GraphPad, San Diego, CA) to calculate IC50 values.

Experiment [7] concerns WM3928 cells. Nature of the experiment: WM3928 Cell Proliferation Assay (1). Format: cell-based. As for the experimental part: WM3928 Cell Proliferation Assay (1)
WM3928 cells (#WM3928-01-0001) are obtained from Rockland Immunochemicals Inc (Gilbertsville, PA). Briefly, cells were grown in MCDB 153 medium (Sigma, #M7403, St. Louis, MO) supplemented with 20% Leibovitz's L-15 (ThermoFisher #11415-064, Waltham, MA), 2% heat inactivated fetal bovine serum (ThermoFisher, #A3840001, Waltham, MA), 5 μg/mL Insulin (Bovine Pancreas) (Sigma, #I0516, St. Louis, MO), 1.68 mM Calcium Chloride (Sigma, #C-34006, St. Louis, MO) and 1% Penicillin/Streptomycin/L-Glutamine (ThermoFisher #10378016, Waltham, MA) at 37° C., 5% CO2, and 95% humidity. Cells are expanded until reaching 70-95% confluency at which point they are subcultured or harvested for assay use. A serial dilution of test compound is dispensed into a 96-well black clear bottom plate in triplicate. Three thousand cells are added per well in 200 μL complete growth medium in the 96-well plate. Plates are incubated for 67-72 hours at 37° C., 5% CO2, and 95% humidity. At the end of the incubation, 40 μL of a 440 μM solution of resazurin (Sigma, #199303, St. Louis, MO) in PBS is added to each well of the plate and plates are incubated for an additional 6-7 hours at 37° C., 5% CO2, and 95% humidity. Plates are read on a Synergy2 or equivalent reader (Biotek, Winooski VT) using an excitation of 540 nm and an emission of 600 nm. Data is analyzed using Prism software (GraphPad, San Diego, CA) to calculate IC50 values.

The test system of experiment [8] is H2405 cells. The experiment is described as follows: H2405 Cell Proliferation Assay (1). Format: cell-based. To be noted: Homo sapiens, NCI-H2405. How it is done:
H2405 Cell Proliferation Assay (1)
as §1, with “H2405” for “A375”, “#CRL-5994)” for “(#CRL-1619)”, “RPMI 1640” for “DMEM High Glucose”, “5%” for “10%”, “Three” for “Two”, “thousand” for “thousand five hundred”

For experiment [9], the system named is Miapaca-2 cells. Nature of the experiment: MiaPaca-2 Cell Proliferation Assay (1). Format: cell-based. To be noted: Homo sapiens, MIA PaCa-2, single agent, read-out: MiaPaca2 (1) IC50. As for the experimental part: MiaPaca-2 Cell Proliferation Assay (1)
as §1, with “Miapaca-2 cells” for “A375 cells”, “(catalog #CRL-1420)” for “(catalog (#CRL-1619)”, “DMEM” for “DMEM High Glucose”, “Carlsbad, CA), 2.5% New Zealand sourced horse serum” for “Carlsbad, CA)”, “triplicate. Three” for “triplicate. Two”, “thousand” for “thousand five hundred”

Chain of A-Raf kinase (SEQ. ID No: 1) (P10398 other isoform, or with tags, fused parts or gaps Y301D (already in the parent)/Y302D (already in the parent)): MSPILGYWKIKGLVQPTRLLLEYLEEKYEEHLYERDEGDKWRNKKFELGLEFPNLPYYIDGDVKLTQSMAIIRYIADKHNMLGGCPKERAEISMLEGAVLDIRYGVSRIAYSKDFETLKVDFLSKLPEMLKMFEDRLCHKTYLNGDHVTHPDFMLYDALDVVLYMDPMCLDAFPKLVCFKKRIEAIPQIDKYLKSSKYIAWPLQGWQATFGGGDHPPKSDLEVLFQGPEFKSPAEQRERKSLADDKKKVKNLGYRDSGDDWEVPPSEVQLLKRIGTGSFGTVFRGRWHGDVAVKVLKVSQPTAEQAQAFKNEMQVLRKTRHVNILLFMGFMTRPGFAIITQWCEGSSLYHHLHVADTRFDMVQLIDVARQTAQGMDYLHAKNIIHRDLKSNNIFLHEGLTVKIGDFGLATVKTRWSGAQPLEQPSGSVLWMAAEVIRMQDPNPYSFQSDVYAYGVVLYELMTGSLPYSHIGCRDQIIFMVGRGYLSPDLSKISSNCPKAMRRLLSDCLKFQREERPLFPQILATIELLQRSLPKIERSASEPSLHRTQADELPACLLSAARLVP
Chain of B-Raf kinase (SEQ. ID NO: 2) (P15056 416-766): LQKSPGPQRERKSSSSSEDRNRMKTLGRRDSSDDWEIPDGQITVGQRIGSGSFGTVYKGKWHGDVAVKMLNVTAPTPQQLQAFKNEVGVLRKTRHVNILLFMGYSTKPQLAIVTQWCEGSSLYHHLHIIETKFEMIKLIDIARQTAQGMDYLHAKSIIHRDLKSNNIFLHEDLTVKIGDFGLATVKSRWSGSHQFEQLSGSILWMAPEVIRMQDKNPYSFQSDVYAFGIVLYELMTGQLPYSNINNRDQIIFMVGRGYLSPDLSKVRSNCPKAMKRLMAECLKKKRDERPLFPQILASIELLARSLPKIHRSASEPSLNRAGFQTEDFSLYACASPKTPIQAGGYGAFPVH
Chain of C-Raf kinase (SEQ. ID NO: 3) (P04049 307-648 Y340D/Y341D): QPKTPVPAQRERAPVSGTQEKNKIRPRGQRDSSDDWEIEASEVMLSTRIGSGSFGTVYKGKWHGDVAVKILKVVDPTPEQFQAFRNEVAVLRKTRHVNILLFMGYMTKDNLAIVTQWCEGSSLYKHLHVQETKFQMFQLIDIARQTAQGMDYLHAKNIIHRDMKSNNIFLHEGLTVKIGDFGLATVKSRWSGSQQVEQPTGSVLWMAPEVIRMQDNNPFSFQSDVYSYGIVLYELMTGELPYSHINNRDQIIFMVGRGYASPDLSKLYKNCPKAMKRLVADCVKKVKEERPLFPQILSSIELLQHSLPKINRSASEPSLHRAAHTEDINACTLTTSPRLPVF
Chain of B-Raf (V600E) (SEQ. ID NO: 4) kinase (P15056 416-766 V600E): as the sequence (P15056 416-766) above, with V185E counted along it

For the compound `Cc1ccc(NC(=O)c2ccnc(C(C)(C)C#N)c2)cc1-c1cccc(-c2cc(NC(=O)C(C)(C)C)ncn2)c1` [Example 210], the IC50 was 1 to 10 µM in [1]; 500 to 1000 nM in [2]; 500 to 1000 nM in experiment [3]; at most 100 nM in experiment [4]; 100 to 500 nM in experiment [5].
As for `COC(=O)Nc1cc(-c2cncc(-c3cc(NC(=O)c4ccnc(C(C)(F)F)c4)ccc3C)c2)ncn1` [Example 238], the IC50 in [6] is at most 100 nM; in experiment [7] it was at most 100 nM; in [8], 100 to 500 nM; in experiment [9], 1 to 10 µM; in experiment [5] it was 100 to 500 nM.
